Among the data in patent publication US20250340561A1, “QUINAZOLINE COMPOUND FOR INDUCING DEGRADATION OF G12D MUTANT KRAS PROTEIN” (Astellas Pharma Inc., priority 2021, published 2025) are DC50 values, retold here.

The structures appear in SMILES notation.

The target of the assay is T1, KRAS G12D (Homo sapiens, UniProt P01116, G12D).
T1 construct: host or cells: AsPC-1 human pancreatic cancer cells
Briefly: Test Example 1-2: KRAS degradation action in AsPC-1, Cell ELISA. It is filed as cell-based. To be noted: AsPC-1 cells, overnight treatment, corrected with β-actin, 0% = 10 μM Example No. 26 (Example No. 8 for Example Nos. 74 and 75). The protocol: Test Example 1-2: Evaluation of KRAS Degradation Action on Human G12D Mutant KRAS-Positive Pancreatic Cancer Line AsPC-1
The KRAS degradation action of test compounds was evaluated by measuring the expression levels of KRAS G12D by Cell ELISA.
[…] As for the cell culture conditions, a RPMI 1640 medium containing 10% fetal bovine serum was used in the presence of 5% CO2 at 37° C. The next day, the test compounds (10 points having final concentrations in the range of 10 μM to 0.3 nM), the compound of Example No. 26 (Example No. 8 for Example Nos. 74 and 75) of a final concentration of 10 μM as a positive control and DMSO, which was the solvent for the test compounds, as a negative control were diluted 500-fold with a fresh medium and were added at 20 μL per well. The cells were cultured overnight.
The next day, the culture supernatant was removed, and 4% paraformaldehyde phosphate buffer (from FUJIFILM Wako Pure Chemical Corporation) was added at 20 μL per well. The plate was allowed to stand for 30 minutes at room temperature to thus immobilize the cells. Then, the supernatant was removed, and 0.1% Triton X-100 (from Amersham Biosciences)-containing PBS was added at 20 μL per well. After allowing to stand for 10 minutes at room temperature, the supernatant was removed. PBS was added at 25 μL per well, and the supernatant was removed to thus wash each well. The washing was performed twice in total. Next, the supernatant was removed, and 0.5% sodium dodecyl sulfate (SDS; from Invitrogen)-containing PBS was added at 20 μL per well. After allowing to stand at room temperature for 10 minutes, the supernatant was removed by centrifugation (using a centrifugal dehydrator machine, the supernatant was removed by the same method hereinafter). PBS was added at 25 μL per well, and the supernatant was removed to thus wash each well. The washing was performed twice in total. The supernatant was removed by centrifugation, and a blocking solution (Intercept Blocking Buffer) was added at 20 μL per well. After allowing to stand for 30 minutes at room temperature, the supernatant was removed by centrifugation, and a solution obtained by diluting an anti-Ras (G12D Mutant Specific) antibody and an anti-3-actin antibody 1,000-fold with a blocking solution was added at 20 μL per well as a primary antibody. The plate was allowed to stand overnight at 4° C.
The next day, the plate was centrifuged to remove the supernatant. PBS was added at […], and the supernatant was removed to thus wash each well. The washing was performed twice in total. The supernatant was removed by centrifugation, and a solution obtained by diluting Donkey anti-Mouse IgG H&L (TRDye 680RD) (from Li—COR Biosciences) and Goat anti-Rabbit IgG H&L (IRDye 800CW) (from Li—COR Biosciences) 1,000-fold with a blocking solution was added at 20 μL per well as a secondary antibody. After allowing to stand for 1 hour at room temperature, the supernatant was removed. PBS was added at 25 μL per well, and the supernatant was removed to thus wash each well. The washing was performed twice in total. After removing the supernatant by centrifuging the plate, the plate was dried as it was with air at room temperature for 2 hours or more, and the 700-nm and 800-nm fluorescent signals were measured with Aerius (from LI-COR Biosciences).
With the signaling value at the time of addition of DMSO corrected with the signaling value of β-actin taken as 100% and with the signaling value at the time of addition of 10 μM of the compound of Example No. 26 taken as 0%, the 50% degradation values (DC50) of the amounts of KRAS were calculated by Sigmoid-Emax model nonlinear regression analysis. The molecular weights of the test compounds were calculated as the molecular weights of the trihydrochloride for Example No. 30, the tetrahydrochloride for Example No. 46 and the free forms forming no salt for the remaining Example Nos. The results for some test compounds of the formula (I) are shown in Table 2.
(ELISA stands for enzyme-linked immunosorbent assay.)

T1 sequence (P01116 1-188 isoform P01116-2 G12D): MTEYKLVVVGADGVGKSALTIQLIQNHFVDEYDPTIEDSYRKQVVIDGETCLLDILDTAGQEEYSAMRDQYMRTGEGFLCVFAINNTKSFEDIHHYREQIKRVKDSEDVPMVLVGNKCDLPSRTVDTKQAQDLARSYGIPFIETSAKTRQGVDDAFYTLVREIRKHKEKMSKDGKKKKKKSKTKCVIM

By DC50 is commonly meant the concentration giving 50% degradation. Low values mean a more potent degrader, high ones a less potent degrader. The compound `Cc1ncsc1-c1ccc([C@H](CO)NC(=O)[C@@H]2C[C@@H](O)CN2C(=O)[C@@H](NC(=O)C[C@@H]2CCN(C(=O)c3ccc(COc4c(-c5c(C)c(F)cc6[nH]ncc56)c(C5CC5)cc5c(N6C[C@@H]7C[C@H]6CN7)nc(OC6CCOCC6)nc45)cc3)C2)C(C)C)cc1` [Example 75] displayed a DC50 of 5.89 µM.
The figure for `Cc1ncsc1-c1ccc([C@H](CO)NC(=O)[C@@H]2C[C@@H](O)CN2C(=O)[C@@H](NC(=O)CCN(C)C(=O)c2ccc(COc3c(-c4c(C)c(F)cc5[nH]ncc45)c(C4CC4)cc4c(N5C[C@@H]6C[C@H]5CN6)nc(OC5CCOCC5)nc34)cc2)C(C)C)cc1` [Example 74] is 1 µM.
